These results are taken from patent US20190255073A1, “ESTERS OF 3-POLYAMINE DERIVATIVES OF BILE ACIDS FOR THE TREATMENT OF INFECTIONS” (VIRBAC, priority 2016, published 2019).

Test [1] relates to P. aeruginosa (1051575). Briefly: Potentiation of erythromycin activity. Type of test: cell-based, Pseudomonas aeruginosa. The following applies: concentration of compound required with erythromycin 2 μg/mL. The procedure: (§1) This method requires the use of a 96-well plate: 100 μL of a liquid culture medium are placed in each well and then seeded with the microbial suspension prepared previously. The required volume to be seeded is calculated for an OD of 0.01, which corresponds to about 5×10^6 bacteria in each well. In this plate, the first line corresponds to a negative control (200 μL of sterile culture medium in each well), the second line corresponds to a positive control (100 μL of sterile culture medium+100 μL of the bacterial suspension), and the third line contains 192 μL of culture medium; 8 μL of compound of formula (I) to be tested are placed in each well. Thereafter, a cascade dilution is performed from this line. μL of a doxycycline solution (1 mg dissolved in 20 mL) are then added to each well of the lines 3 to 8 to obtain a final antibiotic concentration of 2 μg/mL. 92 μL of bacterial suspension are then added to lines 3 to 8. […] After 24 hours of incubation at 37° C., 40 μL of nitro tetrazolium iodide are added to each well to reveal the presence of live bacteria by staining the medium pink.
The procedure is identical to that indicated in Example 5 above. 8 μL of an antibiotic solution under consideration (1 mg dissolved in 20 mL) are added to obtain a final antibiotic concentration of 2 μg/mL instead of 8 μL of a doxycycline solution.
(§2) The results are given in table V. They indicate the concentration of compound of formula (I) required to be able to restore the activity of the antibiotic under consideration.

The next test relates to C. albicans. Kind of test: Antifungal activity, cascade microdilution, C. albicans. It counts as cell-based, Candida albicans. The following applies: Candida albicans, 24 h, read-out: IC50 (μg/mL) C. albicans.
A further test relates to S. aureus (340). Kind of test: MIC determination by microplate dilution, S. aureus animal strain. The settings on record: Staphylococcus aureus, Gram-positive, Mueller-Hinton medium, 24 h, 37° C. Type of test: cell-based, Staphylococcus aureus. An outline of the steps:
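Bacteria were precultured 24 h at 37 °C, standardised by OD600 and seeded into Mueller-Hinton broth at OD 0.01 per well. Test compounds, from a 5 mg/mL DMSO/methanol stock, were diluted two-fold across the plate. After 24 h humid incubation at 37 °C, absorbance at 620 nm gave the MIC.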

For test [2], the system named is P. aeruginosa (1051575). Kind of test: Potentiation of ampicillin activity. It counts as cell-based, Pseudomonas aeruginosa. The following applies: concentration of compound required with ampicillin 4 μg/mL. The procedure:
as §1, with “Thereafter, a cascade dilution is performed from this line. μL of a doxycycline solution (1 mg dissolved in 20 mL) are then added to each well of the lines 3 to 8 to obtain a final antibiotic concentration of 2 μg/mL.” left out
The procedure is identical to that indicated in Example 5 above. […]
as §2

The structures appear in SMILES notation. In brackets after ≈: the same amount, converted by molar mass.

In general, MIC refers to the least concentration at which growth counts as inhibited. Consider `CC(C)OC(=O)CC[C@@H](C)[C@H]1CCC2C3C(CC[C@@]21C)[C@@]1(C)CC[C@H](NCCCN(CCCN)CCCN)CC1C[C@H]3O` (stereo partly drawn) [(39), isopropyl 3β-(tris(3-aminopropyl)amine)chenodeoxycholate], for which the “MIC P. aeruginosa (1051575), compound + erythromycin” value with P. aeruginosa (1051575) [1] was found to be 30 µg/mL. Further, the IC50 with C. albicans is 4 µg/mL (≈ 6.61 µM). The MIC against S. aureus (340) stood at 7 µg/mL (≈ 11.6 µM). Further, in the test with P. aeruginosa (1051575) [2], the “MIC P. aeruginosa (1051575), compound + ampicillin” value is 30 µg/mL.
